Reference: US9120756B2, “Substituted phenylureas and phenylamides as vanilloid receptor ligands” (Gruenenthal GmbH, priority 2009, dated 2015)

Columns and labels:
Format in all cases: cell-based
hVR1 [1] = target: T1, hVR1 (Homo sapiens (Human), UniProt Q8NER1); test: FLIPR Ca2+ influx assay on CHO K1 cells transfected with the VR1 gene, capsaicin stimulus (method II); set-up: key to Ki (human being) Cap: result in words (NE / AG): AG=agonist; pAG=partial agonist; NE=no effect; conditions: for Ki: capsaicin (Cap), read-out: Ki (human being) [nM] Cap; for Ki (human being) Cap: result in words (NE / AG): capsaicin; for inhibition at 1 µM: CHO-K1, read-out: Ki (human being) inhibition (as a percentage) @ 1 μM, capsaicin, inhibition determined at 1 μM
T1 sequence (Q8NER1 whole entry): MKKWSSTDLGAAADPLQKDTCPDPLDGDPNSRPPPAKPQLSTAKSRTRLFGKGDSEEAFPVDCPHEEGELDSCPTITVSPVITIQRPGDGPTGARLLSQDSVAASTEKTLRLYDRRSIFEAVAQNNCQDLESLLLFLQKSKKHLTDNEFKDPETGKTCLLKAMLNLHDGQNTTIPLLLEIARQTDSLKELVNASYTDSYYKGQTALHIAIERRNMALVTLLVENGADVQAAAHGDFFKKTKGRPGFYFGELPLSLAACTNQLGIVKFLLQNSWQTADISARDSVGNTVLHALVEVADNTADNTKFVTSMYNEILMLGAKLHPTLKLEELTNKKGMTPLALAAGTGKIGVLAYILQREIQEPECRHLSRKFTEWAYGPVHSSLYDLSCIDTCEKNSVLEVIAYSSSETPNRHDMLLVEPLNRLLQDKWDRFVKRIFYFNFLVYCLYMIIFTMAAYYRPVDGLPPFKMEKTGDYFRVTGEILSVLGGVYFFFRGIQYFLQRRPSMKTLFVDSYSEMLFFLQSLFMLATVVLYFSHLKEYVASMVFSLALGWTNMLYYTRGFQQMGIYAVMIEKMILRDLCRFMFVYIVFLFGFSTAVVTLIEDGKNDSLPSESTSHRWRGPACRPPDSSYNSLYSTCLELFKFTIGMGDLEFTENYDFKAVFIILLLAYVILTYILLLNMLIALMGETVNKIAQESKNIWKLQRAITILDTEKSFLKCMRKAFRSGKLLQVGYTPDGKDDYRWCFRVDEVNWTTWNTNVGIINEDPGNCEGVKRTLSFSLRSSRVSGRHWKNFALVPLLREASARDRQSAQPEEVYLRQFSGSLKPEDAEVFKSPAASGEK
Text: In the process, the Ca^2+ influx is quantified in the FLIPR assay with the aid of a Ca^2+-sensitive dye (type Fluo-4, Molecular Probes Europe BV, Leiden, the Netherlands) in a fluorescent imaging plate reader (FLIPR, Molecular Devices, Sunnyvale, USA), as described hereinafter.
(§1) The agonistic or antagonistic effect of the substances to be tested on the vanilloid receptor 1 (VR1) can also be determined using the following assay. In this assay, the influx of Ca^2+ through the channel is quantified with the aid of a Ca^2+-sensitive dye (type Fluo-4, Molecular Probes Europe BV, Leiden, the Netherlands) in a fluorescent imaging plate reader (FLIPR, Molecular Devices, Sunnyvale, USA).
(§2) Chinese hamster ovary cells (CHO K1 cells, European Collection of Cell Cultures (ECACC) United Kingdom) are stably transfected with the VR1 gene. For functional testing, these cells are plated out on poly-D-lysine-coated black 96-well plates having a clear base (BD Biosciences, Heidelberg, Germany) at a density of 25,000 cells/well. The cells are incubated overnight at 37° C. and 5% CO2 in a culture medium (Ham's F12 nutrient mixture, 10% by volume of FCS (foetal calf serum), 18 μg/ml of L-proline). The next day the cells are incubated with Fluo-4 (Fluo-4 2 μM, 0.01% by volume of Pluronic F127, Molecular Probes in HBSS (Hank's buffered saline solution), Gibco Invitrogen GmbH, Karlsruhe, Germany) for 30 minutes at 37° C. Subsequently, the plates are washed three times with HBSS buffer and after further incubation for 15 minutes at RT used for Ca^2+ measurement in a FLIPR assay. The Ca^2+-dependent fluorescence is measured before and after the addition of the substances to be tested (λex wavelength=488 nm, λem=540 nm). Quantification is carried out by measuring the highest fluorescence intensity (FC, fluorescence counts) over time.
The FLIPR protocol consists of 2 substance additions. First the compounds to be tested (10 μM) are pipetted onto the cells and the Ca^2+ influx is compared with the control (capsaicin 10 μM) (% activation based on the Ca^2+ signal after the addition of 10 μM of capsaicin). After 5 minutes' incubation, 100 nM of capsaicin are applied and the Ca^2+ influx is also determined.
(§3) Desensitising agonists and antagonists led to suppression of the Ca^2+ influx.
Starting from the percentage displacement caused by different concentrations of the compounds to be tested of general formula I, IC50 inhibitory concentrations which cause a 50-percent displacement of capsaicin were calculated. Ki values for the test substances were obtained by conversion by means of the Cheng-Prusoff equation (Cheng, Prusoff; Biochem. Pharmacol. 22, 3099-3108, 1973).

hVR1 [2] = target: T1, hVR1; test: FLIPR assay hVR1, after pH stimulus; set-up: key to IC50 (human being) hVR1 pH: result in words (NE / AG): AG=agonist; pAG=partial agonist; NE=no effect; conditions: for inhibition at 10 µM: read-out: IC50 (human being) hVR1 pH: inhibition (as a percentage) @ 10 μM, inhibition determined at 10 μM
Protocol: In this assay, the influx of Ca^2+ through the channel is quantified with the aid of a Ca^2+-sensitive dye (type Fluo-4, Molecular Probes Europe BV, Leiden, the Netherlands) in a fluorescent imaging plate reader (FLIPR, Molecular Devices, Sunnyvale, USA). Chinese hamster ovary cells (CHO K1 cells, European Collection of Cell Cultures (ECACC) United Kingdom) are stably transfected with the VR1 gene. For functional testing, these cells are plated out on poly-D-lysine-coated black 96-well plates having a clear base (BD Biosciences, Heidelberg, Germany) at a density of 25,000 cells/well. […] Subsequently, the plates are washed three times with HBSS buffer and after further incubation for 15 minutes at RT used for Ca^2+ measurement in a FLIPR assay. […] Quantification is carried out by measuring the highest fluorescence intensity (FC, fluorescence counts) over time. The FLIPR protocol consists of 2 substance additions. […] Desensitising agonists and antagonists led to suppression of the Ca^2+ influx. […] Ki values for the test substances were obtained by conversion by means of the Cheng-Prusoff equation (Cheng, Prusoff; Biochem. Pharmacol. 22, 3099-3108, 1973).

hVR1 [3] = target: T1, hVR1; test: FLIPR assay human VR1, 45° C. stimulus; conditions: read-out: IC50 (human being) [nM], 45° C.
Text: as §1, §2
The FLIPR protocol consists of 2 substance additions. […]
as §3
Ki values for the test substances were obtained by conversion by means of the Cheng-Prusoff equation (Cheng, Prusoff; Biochem. Pharmacol. 22, 3099-3108, 1973).

[4] = target: rat-species vanilloid receptor 1 (VR1/TRPV1) (Rattus norvegicus (Rat), UniProt O35433); test: FLIPR Ca2+ influx assay on rat dorsal root ganglia cells, capsaicin stimulus (method I); conditions: for Ki: capsaicin (Cap); for inhibition at 5 µM: read-out: Ki (rat) Cap: inhibition (as a percentage) @ 5 μM, capsaicin, inhibition determined at 5 μM
Sequence of rat-species vanilloid receptor 1 (VR1/TRPV1) (O35433 whole entry): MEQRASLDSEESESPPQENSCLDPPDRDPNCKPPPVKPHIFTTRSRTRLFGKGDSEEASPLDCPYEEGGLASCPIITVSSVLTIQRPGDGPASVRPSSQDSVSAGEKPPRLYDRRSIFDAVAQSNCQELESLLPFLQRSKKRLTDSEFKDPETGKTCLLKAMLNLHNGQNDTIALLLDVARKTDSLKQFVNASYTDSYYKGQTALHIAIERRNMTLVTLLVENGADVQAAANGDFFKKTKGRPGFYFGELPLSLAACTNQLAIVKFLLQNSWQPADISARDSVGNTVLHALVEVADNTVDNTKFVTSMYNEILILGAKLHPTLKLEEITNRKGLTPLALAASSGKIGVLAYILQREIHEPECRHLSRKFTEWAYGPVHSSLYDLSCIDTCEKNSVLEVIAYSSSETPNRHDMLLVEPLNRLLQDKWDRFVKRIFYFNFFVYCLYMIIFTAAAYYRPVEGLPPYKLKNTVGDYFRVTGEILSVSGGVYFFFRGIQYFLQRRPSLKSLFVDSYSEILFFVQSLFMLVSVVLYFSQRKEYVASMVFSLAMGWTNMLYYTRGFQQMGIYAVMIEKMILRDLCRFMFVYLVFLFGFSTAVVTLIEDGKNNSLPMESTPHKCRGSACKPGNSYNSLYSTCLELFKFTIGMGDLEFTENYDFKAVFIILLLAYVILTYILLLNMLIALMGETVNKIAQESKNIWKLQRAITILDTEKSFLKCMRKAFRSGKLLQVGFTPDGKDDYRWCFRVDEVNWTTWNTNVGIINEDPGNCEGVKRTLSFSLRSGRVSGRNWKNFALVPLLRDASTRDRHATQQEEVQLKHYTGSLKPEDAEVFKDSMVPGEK
Protocol: The agonistic or antagonistic effect of the substances to be tested on the rat-species vanilloid receptor 1 (VR1/TRPV1) can be determined using the following assay. In this assay, the influx of Ca^2+ through the receptor channel is quantified with the aid of a Ca^2+-sensitive dye (type Fluo-4, Molecular Probes Europe BV, Leiden, the Netherlands) in a fluorescent imaging plate reader (FLIPR, Molecular Devices, Sunnyvale, USA).
Complete medium: 50 ml HAMS F12 nutrient mixture (Gibco Invitrogen GmbH, Karlsruhe, Germany) with
10% by volume of FCS (foetal calf serum, Gibco Invitrogen GmbH, Karlsruhe, Germany, heat-inactivated);
2 mM L-glutamine (Sigma, Munich, Germany);
1% by weight of AA solution (antibiotic/antimyotic solution, PAA, Pasching, Austria) and 25 ng/ml NGF medium (2.5 S, Gibco Invitrogen GmbH, Karlsruhe, Germany)
Cell culture plate: Poly-D-lysine-coated, black 96-well plates having a clear base (96-well black/clear plate, BD Biosciences, Heidelberg, Germany) are additionally coated with laminin (Gibco Invitrogen GmbH, Karlsruhe, Germany), the laminin being diluted with PBS (Ca—Mg-free PBS, Gibco Invitrogen GmbH, Karlsruhe, Germany) to a concentration of 100 μg/ml. Aliquots having a laminin concentration of 100 μg/ml are removed and stored at −20° C. The aliquots are diluted with PBS in a ratio of 1:10 to 10 μg/ml of laminin and respectively 50 μL of the solution are pipetted into a recess in the cell culture plate. The cell culture plates are incubated for at least two hours at 37° C., the excess solution is removed by suction and the recesses are each washed twice with PBS. The coated cell culture plates are stored with excess PBS which is not removed until just before the feeding of the cells.
The vertebral column is removed from decapitated rats and placed immediately into cold HBSS buffer (Hank's buffered saline solution, Gibco Invitrogen GmbH, Karlsruhe, Germany), i.e. buffer located in an ice bath, mixed with 1% by volume (percent by volume) of an AA solution (antibiotic/antimyotic solution, PAA, Pasching, Austria). The vertebral column is cut longitudinally and removed together with fasciae from the vertebral canal. Subsequently, the dorsal root ganglia (DRG) are removed and again stored in cold HBSS buffer mixed with 1% by volume of an AA solution. The DRG, from which all blood remnants and spinal nerves have been removed, are transferred in each case to 500 μL of cold type 2 collagenase (PAA, Pasching, Austria) and incubated for 35 minutes at 37° C. After the addition of 2.5% by volume of trypsin (PAA, Pasching, Austria), incubation is continued for 10 minutes at 37° C. After complete incubation, the enzyme solution is carefully pipetted off and 500 μL of complete medium are added to each of the remaining DRG. […] The contents of each Falcon tube are respectively filtered through a 70 μm Falcon filter element and centrifuged for 10 minutes at 1,200 rpm and RT. The resulting pellet is respectively taken up in 250 μL of complete medium and the cell count is determined.
The number of cells in the suspension is set to 3×10^5 per ml and 150 μL of this suspension are in each case introduced into a recess in the cell culture plates coated as described hereinbefore. […] Subsequently, the cells are loaded with 2 μM of Fluo-4 and 0.01% by volume of Pluronic F127 (Molecular Probes Europe BV, Leiden, the Netherlands) in HBSS buffer (Hank's buffered saline solution, Gibco Invitrogen GmbH, Karlsruhe, Germany) for 30 min at 37° C., washed 3 times with HBSS buffer and after further incubation for 15 minutes at RT used for Ca^2+ measurement in a FLIPR assay. The Ca^2+-dependent fluorescence is in this case measured before and after the addition of substances (λex=488 nm, λem=540 nm). Quantification is carried out by measuring the highest fluorescence intensity (FC, fluorescence counts) over time.
The FLIPR protocol consists of 2 substance additions.

Ki (hVR1 [1]) [nM]	inhibition at 10 µM (hVR1 [2]) [%]	Ki [4] [nM]	inhibition at 5 µM [4] [%]	IC50 (human being) hVR1 pH: result in words (NE / AG) (hVR1 [2])	Structure (SMILES)	further results
0.4					COc1cc(C(C)C(=O)NCc2cc(C(F)(F)F)nn2-c2cccc(Cl)c2)ccc1NS(C)(=O)=O (stereo not drawn) [Example 28, N-((1-(3-chlorophenyl)-3-(trifluoromethyl)-1H-pyrazol-5-yl)methyl)-2-(3-methoxy-4-(methylsulphonamido)phenyl)propanamide]	IC50 (hVR1 [2]; read-out: IC50 (human being) hVR1 [nM], pH): 16 nM; IC50 (hVR1 [3]): 665 nM
31.7	42	42.7			C[C@@H](C(=O)NCc1cc(C(F)(F)F)nn1-c1ccc(Cl)cc1)c1ccc(NS(C)(=O)=O)c(F)c1 [Example 22, (R)-N-((1-(4-chlorophenyl)-3-(trifluoromethyl)-1H-pyrazol-5-yl)methyl)-2-(3-fluoro-4-(methylsulphonamido)phenyl)propanamide]	
		2830		NE	COc1ccc(-n2nc(C(C)(C)C)cc2CNC(=O)C(C)c2ccc(NS(C)(=O)=O)c(F)c2)cc1 (stereo not drawn) [Example 20, N-((3-tert-butyl-1-(4-methoxyphenyl)-1H-pyrazol-5-yl)methyl)-2-(3-fluoro-4-(methylsulphonamido)phenyl)propanamide]	inhibition at 1 µM (hVR1 [1]): 55%

The next lines start with the compound.

Structure (SMILES)	Ki (hVR1 [1]) [nM]	inhibition at 10 µM (hVR1 [2]) [%]	Ki [4] [nM]	inhibition at 5 µM [4] [%]	IC50 (human being) hVR1 pH: result in words (NE / AG) (hVR1 [2])	further results
CC(C(=O)NCc1cc(C(C)(C)C)nn1-c1ccc(F)c(Cl)c1)c1ccc(NS(C)(=O)=O)c(F)c1 (stereo not drawn) [Example 18, N-((3-tert-butyl-1-(3-chloro-4-fluorophenyl)-1H-pyrazol-5-yl)methyl)-2-(3-fluoro-4-(methylsulphonamido)phenyl)propanamide]	0.5	31				IC50 (hVR1 [3]): 7 nM
CC(C(=O)NCc1cc(C(C)(C)C)nn1-c1ccc(Cl)cc1)c1ccc(NS(C)(=O)=O)c(F)c1 (stereo not drawn) [Example 14, N-((3-tert-butyl-1-(4-chlorophenyl)-1H-pyrazol-5-yl)methyl)-2-(3-fluoro-4-(methylsulphonamido)phenyl)propanamide]	3.7	25	7.2			
CCCCCCn1nc(C(C)(C)C)cc1CNC(=O)[C@@H](C)c1ccc(NS(C)(=O)=O)c(F)c1 [Example 6, (S)-N-((3-tert-butyl-1-hexyl-1H-pyrazol-5-yl)methyl)-2-(3-fluoro-4-(methylsulphonamido)phenyl)propanamide]	27.7	13	14.5			
C[C@H](C(=O)NCc1cc(C(C)(C)C)n[nH]1)c1ccc(NS(C)(=O)=O)c(F)c1 [Example 2, (S)-N-((3-tert-butyl-1H-pyrazol-5-yl)methyl)-2-(3-fluoro-4-(methylsulphonamido)phenyl)propanamide]				25	NE	Ki (human being) Cap: result in words (NE / AG) (hVR1 [1]): NE
CC(C(=O)NCc1cc(C(C)(C)C)nn1C)c1ccc(NS(C)(=O)=O)c(F)c1 (stereo not drawn) [Example 3, N-((3-tert-butyl-1-methyl-1H-pyrazol-5-yl)methyl)-2-(3-fluoro-4-(methylsulphonamido)phenyl)propanamide]				14	NE	inhibition at 5 µM (hVR1 [1]; CHO-K1, read-out: Ki (human being) Cap column: inhibition (as a percentage) @ 5 μM, capsaicin, inhibition determined at 5 μM): 12%
CC(C(=O)NCc1cc(C(C)(C)C)n[nH]1)c1ccc(NS(C)(=O)=O)c(F)c1 (stereo not drawn) [Example 1, N-((3-tert-butyl-1H-pyrazol-5-yl)methyl)-2-(3-fluoro-4-(methylsulphonamido)phenyl)propanamide]				25	NE	Ki (human being) Cap: result in words (NE / AG) (hVR1 [1]): NE
Cc1ccc(/C=C/n2nc(C(C)(C)C)cc2CNC(=O)C(C)c2ccc(NS(C)(=O)=O)c(F)c2)cc1 (stereo not drawn) [Example 19, (E)-N-((3-tert-butyl-1-(4-methylstyryl)-1H-pyrazol-5-yl)methyl)-2-(3-fluoro-4-(methylsulphonamido)phenyl)propanamide]			819		NE	inhibition at 1 µM (hVR1 [1]): 44%
